Results published in BindingDB's records for doi:10.1021/jm00207a020 (1978).

Target: Adenylate cyclase type 1 (Rattus norvegicus, UniProt D4A3N4)
Assay: Inhibition of dopamine-sensitive rat brain adenylyl cyclase activity assessed as cAMP level

Sequence of Adenylate cyclase type 1 (D4A3N4 whole entry): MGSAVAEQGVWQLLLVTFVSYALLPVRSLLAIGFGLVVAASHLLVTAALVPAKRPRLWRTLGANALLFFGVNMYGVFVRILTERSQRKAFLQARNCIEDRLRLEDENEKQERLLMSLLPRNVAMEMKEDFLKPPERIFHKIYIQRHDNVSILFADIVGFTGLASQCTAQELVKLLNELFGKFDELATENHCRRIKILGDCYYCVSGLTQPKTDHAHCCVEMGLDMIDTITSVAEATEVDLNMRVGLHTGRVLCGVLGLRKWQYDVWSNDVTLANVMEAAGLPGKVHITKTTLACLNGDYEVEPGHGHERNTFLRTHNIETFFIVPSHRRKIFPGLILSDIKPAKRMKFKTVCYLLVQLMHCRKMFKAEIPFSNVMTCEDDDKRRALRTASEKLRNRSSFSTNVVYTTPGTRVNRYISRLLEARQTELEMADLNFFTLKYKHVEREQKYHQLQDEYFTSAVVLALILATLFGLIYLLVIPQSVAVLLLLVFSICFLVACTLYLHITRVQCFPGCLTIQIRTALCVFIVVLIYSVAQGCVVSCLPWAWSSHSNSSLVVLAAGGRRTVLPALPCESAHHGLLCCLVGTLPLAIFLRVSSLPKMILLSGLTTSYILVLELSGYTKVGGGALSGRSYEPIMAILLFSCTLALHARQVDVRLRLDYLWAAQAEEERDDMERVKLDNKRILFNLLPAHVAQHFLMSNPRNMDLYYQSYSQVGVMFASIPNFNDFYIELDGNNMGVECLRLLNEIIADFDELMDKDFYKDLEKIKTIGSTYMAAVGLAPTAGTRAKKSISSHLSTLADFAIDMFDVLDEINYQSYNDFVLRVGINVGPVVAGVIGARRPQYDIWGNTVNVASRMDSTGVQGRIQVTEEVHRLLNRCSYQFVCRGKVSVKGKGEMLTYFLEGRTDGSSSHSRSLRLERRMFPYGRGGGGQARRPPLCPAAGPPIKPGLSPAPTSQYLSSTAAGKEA

Structure (SMILES) | IC50
c1ccc(C2=Nc3ccccc3N=C(N3CCC(c4ccccc4)CC3)C2)cc1 | 4.5 nM
CN1CCN(C2=Nc3cc(Cl)ccc3Nc3ccccc32)CC1 [8-Chloro-11-(4-methyl-piperazin-1-yl)-5H-dibenzo[b,e][1,4]diazepine(Clopazine)] | 1.4 nM
